Target: T1, JAK1 (Homo sapiens, UniProt P23458)
T1 construct: purchased Thermo Fisher Scientific (Life Technologies) SelectScreen
Experiment: SelectScreen Z'LYTE
Type: biochemical
Procedure, shortened: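 NU5455 was profiled across the SelectScreen Broad panel of kinase activity and binding assays. Z'LYTE reactions such as CSF1R ran at apparent Km ATP, while the Adapta CAMK1 assay used ATP listed as 10. Values are given as percent.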

T1 sequence (P23458 whole entry): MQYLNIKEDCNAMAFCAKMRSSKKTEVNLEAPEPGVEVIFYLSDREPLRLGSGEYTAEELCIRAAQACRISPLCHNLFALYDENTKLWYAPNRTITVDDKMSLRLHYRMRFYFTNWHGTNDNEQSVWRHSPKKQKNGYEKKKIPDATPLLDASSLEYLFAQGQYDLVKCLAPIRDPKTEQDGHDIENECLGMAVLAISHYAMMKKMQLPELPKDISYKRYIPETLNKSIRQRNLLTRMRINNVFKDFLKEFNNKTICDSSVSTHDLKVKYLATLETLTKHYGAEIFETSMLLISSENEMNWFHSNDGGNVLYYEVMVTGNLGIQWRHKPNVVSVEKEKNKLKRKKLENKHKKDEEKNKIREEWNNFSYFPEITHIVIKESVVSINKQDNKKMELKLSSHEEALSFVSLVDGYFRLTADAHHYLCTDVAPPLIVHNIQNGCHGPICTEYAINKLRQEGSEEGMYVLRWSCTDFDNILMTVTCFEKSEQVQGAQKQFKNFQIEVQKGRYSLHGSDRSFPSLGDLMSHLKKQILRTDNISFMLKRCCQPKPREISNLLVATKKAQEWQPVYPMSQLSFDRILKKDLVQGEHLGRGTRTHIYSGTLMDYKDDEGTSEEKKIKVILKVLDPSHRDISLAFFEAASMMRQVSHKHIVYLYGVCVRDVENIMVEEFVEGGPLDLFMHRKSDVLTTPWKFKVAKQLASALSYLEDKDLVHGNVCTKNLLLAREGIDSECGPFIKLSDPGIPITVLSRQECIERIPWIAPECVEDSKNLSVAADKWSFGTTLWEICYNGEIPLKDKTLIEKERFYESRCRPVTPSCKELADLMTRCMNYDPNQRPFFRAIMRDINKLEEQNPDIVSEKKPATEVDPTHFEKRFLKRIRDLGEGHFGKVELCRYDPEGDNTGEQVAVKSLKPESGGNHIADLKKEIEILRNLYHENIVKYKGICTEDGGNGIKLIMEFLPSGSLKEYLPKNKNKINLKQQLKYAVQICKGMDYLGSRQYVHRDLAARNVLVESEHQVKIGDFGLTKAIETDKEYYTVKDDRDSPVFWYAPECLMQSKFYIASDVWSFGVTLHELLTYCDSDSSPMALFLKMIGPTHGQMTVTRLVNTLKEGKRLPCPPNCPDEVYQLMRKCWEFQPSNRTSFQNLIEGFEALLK

CN(C(=O)CN1CCOCC1)c1ccc2sc3c(-c4cccc5c(=O)cc(N6CC7CCC(C6)O7)oc45)cccc3c2c1 [NU5455]
inhibition at 1 µM: -5.7%
